From patent publication US20230028293A1, “MULTIPLE MYELOMA COMBINATION THERAPIES BASED ON PROTEIN TRANSLATION INHIBITORS AND IMMUNOMODULATORS” (The Regents of the University of Colorado, a body corporate, priority 2019, published 2023) come the findings set out here.

What all share (assay type): cell-based
One assay relates to MM cell lines. The experiment in a line: Two-drug combination matrix in MM cell lines, ZIP synergy. Particulars: for ZIP δ-score for synergy with omacetaxine: BET inhibitor with omacetaxine; for synergy of translation inhibitor with pomalidomide: MM.1S and H929 cells.
The subject of assay [1] is protein translation in MM cell lines and primary MM cells. The experiment in a line: OP-Puro protein translation assay in vitro. The following applies: omacetaxine 50 nM 2.5 h, bortezomib 6 h, 24 h, 48 h. How it is done: To examine whether myeloma cells depend on inherently high protein synthesis, the O-Propargyl-puromycin (OP-Puro) assay was used to measure the rate of amino-acid incorporation into translating ribosomes by flow cytometry.
Protein synthesis levels were determined in vitro utilizing the puromycin analog O-propargyl-puromycin (OP-Puro) in the protein synthesis assay kit (Cayman Chemical) according to manufacturer instructions. For in vivo protein synthesis, engrafted NSG mice were injected IP with 500 μg puromycin (Gibco), then euthanized after 1.5 h, marrow was flushed, and cells stained with anti-puromycin antibody (12D10, Alexa-488, Millipore Sigma), followed by flow cytometry.

In the next assay the test system is MM1.S cells. The experiment in a line: Timecourse of apoptosis and cell death by Annexin V and DAPI flow cytometry. From the text:
FIG. 2A depicts the timecourse of induction of apoptosis and cell death by omacetaxine in MM1.S cells as measured by Annexin V and DAPI staining by flow cytometry.
FIG. 10A depicts the timecourse of induction of apoptosis and cell death by pomalidomide in MM1.S cells as measured by annexin V and DAPI staining by flow cytometry.
A general note: In flow cytometry, cells or beads pass a laser one at a time.

For the compound `CCS(=O)(=O)Nc1ccc(Oc2ccc(F)cc2F)c(-c2cn(C)c(=O)c3[nH]ccc23)c1` [ABBV-075], the “ZIP δ-score for synergy with pomalidomide” value with MM cell lines (ABBV-075 with pomalidomide, MM.1S cell line) was determined as 6.597. Further, the “ZIP δ-score for synergy with omacetaxine” value with MM cell lines (MM.1S cell line) amounted to 12.02.

For `Cc1sc2c(c1C)C(c1ccc(Cl)cc1)=N[C@@H](CC(=O)OC(C)(C)C)c1nnc(C)n1-2` [JQ1], the “ZIP δ-score for synergy with omacetaxine” value with MM cell lines (MM.1S cell line) is 17.56. For the same compound, the “ZIP δ-score for synergy with pomalidomide” value in the assay with MM cell lines (JQ1 100 nM with pomalidomide 1.25 μM, U266, 96 h) came to 21.18.

For `Cc1sc2c(c1C)C(c1ccc(Cl)cc1)=N[C@@H](CC(=O)Nc1ccc(O)cc1)c1nnc(C)n1-2` [OTX015], the “ZIP δ-score for synergy with omacetaxine” value with MM cell lines (MM.1S cell line) is 7.64. In addition, the “ZIP δ-score for synergy with pomalidomide” value with MM cell lines (OTX015 with pomalidomide, MM cell lines) was 1.84.

For `COc1ccc(C[C@H]2NC[C@H](O)[C@H]2OC(C)=O)cc1` [anisomycin], the “synergy of translation inhibitor with pomalidomide” value (“synergy of translation inhibitor” below) in the assay on MM cell lines is listed as “synergistic”.

With `CC(C)C[C@H](NC(=O)[C@H](Cc1ccccc1)NC(=O)c1cnccn1)B(O)O` [bortezomib], the entries for the “ability to inhibit translation in myeloma cell lines” value in assay [1] and in assay [1] (listed as Boitezomib) were “did not occur” and “did not change translation levels”, respectively.

With `C[C@@H]1C[C@@H]([C@H](O)CC2CC(=O)NC(=O)C2)C(=O)[C@@H](C)C1` [cycloheximide], in the assay with MM cell lines, the “synergy of translation inhibitor” value was “synergistic”.

`C/C(=C\[C@H](C)C(=O)C[C@H](O)CC1CC(=O)NC(=O)C1)[C@@H]1OC(=O)/C=C/CC/C=C/C=C\[C@@H]1C` [lactimidomycin]: in the assay on MM cell lines, the “synergy of translation inhibitor” value is recorded as “synergistic”.

For the compound `Nc1cccc2c1C(=O)N(C1CCC(=O)NC1=O)C2=O` (stereo not shown) [pomalidomide], in the assay on MM1.S cells, the “time at which cell death began” value was found to be 24 h and the “time at which induction of apoptosis started” value amounted to 24 h.
